Assay results from ChEMBL document CHEMBL1201862, “PubChem BioAssay data set” (2004).
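In this assay, cells in 96-well plates receive the compound at five concentrations for 48 hours. Endpoints are linearly interpolated between the surrounding concentrations. GI50 = concentration required for 50% inhibition of growth.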 The source made the active and inactive calls. No stated cut-off is given here; in the data, active = GI50 up to about 1.1 µM and inactive = higher.

Tests used:
Experiment in all cases: DTP human tumour cell line panel, 48 h
[1] = system: NCI-H23
[2] = system: Malme-3M
[3] = system: MDA-MB-231
[4] = system: NCI/ADR-RES
[5] = system: SF-268
[6] = system: T47D
[7] = system: MOLT-4
[8] = system: SN12C
[9] = system: HCT-15
[10] = system: UO-31
[11] = system: DU-145
[12] = system: SK-OV-3
[13] = system: NCI-H226
[14] = system: OVCAR-8
[15] = system: A549
[16] = system: MDA-MB-435
[17] = system: CAKI-1
[18] = system: HL-60
[19] = system: CCRF-CEM
[20] = system: SR

| Structure (SMILES) | GI50 [1] | GI50 [2] | GI50 [3] | GI50 [4] | GI50 [5] | GI50 [6] | GI50 [7] | GI50 [8] | GI50 [9] [µM] | GI50 [10] | GI50 [11] | GI50 [12] | GI50 [13] | GI50 [14] | GI50 [15] | GI50 [16] | GI50 [17] | GI50 [18] | GI50 [19] | GI50 [20] |
| --- | --- | --- | --- | --- | --- | --- | --- | --- | --- | --- | --- | --- | --- | --- | --- | --- | --- | --- | --- | --- |
| O=C(O)Cc1nc[nH]c1C(=O)O | > 100 µM (inactive) | > 100 µM (inactive) | > 100 µM (inactive) | > 100 µM (inactive) | > 100 µM (inactive) | > 100 µM (inactive) | > 100 µM (inactive) | > 100 µM (inactive) | > 100 | > 100 µM (inactive) | > 100 µM (inactive) | > 100 µM (inactive) | > 100 µM (inactive) | > 100 µM (inactive) | > 100 µM (inactive) | > 100 µM (inactive) | > 100 µM (inactive) | > 100 µM (inactive) | > 100 µM (inactive) | – |
| CCCCCCCCCCCCn1c(=O)cc(NCCCC)c2cc3c(NCCCC)cc(=O)n(CCCCCCCCCCCC)c3nc21 | > 100 µM (inactive) | > 100 µM (inactive) | > 100 µM (inactive) | > 100 µM (inactive) | 99.1 µM (inactive) | > 100 µM (inactive) | > 100 µM (inactive) | > 100 µM (inactive) | > 100 | > 100 µM (inactive) | > 100 µM (inactive) | > 100 µM (inactive) | > 100 µM (inactive) | – | > 100 µM (inactive) | > 100 µM (inactive) | > 100 µM (inactive) | – | – | – |
| CC(C)[Si](OCC/C=C/C1CCC(=O)C1C(O)C1CCCCC1)(C(C)C)C(C)C (stereo not given) | 15.6 µM (inactive) | 14.8 µM (inactive) | 18.8 µM (inactive) | 13.9 µM (inactive) | 7.13 µM (inactive) | 15 µM (inactive) | 12.5 µM (inactive) | 18.2 µM (inactive) | 16.3 | 16.6 µM (inactive) | 16.4 µM (inactive) | 15.7 µM (inactive) | 16 µM (inactive) | 15.2 µM (inactive) | 13.8 µM (inactive) | 17.9 µM (inactive) | 14.7 µM (inactive) | – | 19.5 µM (inactive) | 4.29 µM (inactive) |
| Cn1c(=O)c2[nH]c(N=O)nc2n(C)c1=O | > 100 µM (inactive) | > 100 µM (inactive) | > 100 µM (inactive) | > 100 µM (inactive) | > 100 µM (inactive) | > 100 µM (inactive) | > 100 µM (inactive) | > 100 µM (inactive) | > 100 | > 100 µM (inactive) | > 100 µM (inactive) | > 100 µM (inactive) | > 100 µM (inactive) | > 100 µM (inactive) | > 100 µM (inactive) | > 100 µM (inactive) | > 100 µM (inactive) | > 100 µM (inactive) | – | – |
| COc1ccc(/C=C2\N=C(c3ccccc3)OC2=O)cc1OC(C)=O | 65.6 µM (inactive) | 13.5 µM (inactive) | 46.5 µM (inactive) | > 100 µM (inactive) | 27.3 µM (inactive) | > 100 µM (inactive) | 0.615 µM (active) | > 100 µM (inactive) | 49.4 | 58.7 µM (inactive) | > 100 µM (inactive) | > 100 µM (inactive) | > 100 µM (inactive) | 50.4 µM (inactive) | > 100 µM (inactive) | 51.8 µM (inactive) | – | 41.1 µM (inactive) | 27.7 µM (inactive) | 15.2 µM (inactive) |
| Cc1ccc(C(=O)c2[nH]c(NCc3ccccc3)c(C(=S)Nc3ccccc3)c2N)cc1 | 13.3 µM (inactive) | – | 6.55 µM (inactive) | 2.58 µM (inactive) | 12.9 µM (inactive) | 10.3 µM (inactive) | 2.83 µM (inactive) | 14.5 µM (inactive) | 2.14 | 5.32 µM (inactive) | 13.8 µM (inactive) | 2.77 µM (inactive) | 11.5 µM (inactive) | 12.1 µM (inactive) | 9.2 µM (inactive) | 3.28 µM (inactive) | 14.3 µM (inactive) | 16.3 µM (inactive) | 5.16 µM (inactive) | – |
| Cc1cccc2c1NC(=S)[C@@H]1CCCN1C2=O | > 100 µM (inactive) | > 100 µM (inactive) | > 100 µM (inactive) | > 100 µM (inactive) | > 100 µM (inactive) | > 100 µM (inactive) | > 100 µM (inactive) | > 100 µM (inactive) | > 100 | > 100 µM (inactive) | > 100 µM (inactive) | > 100 µM (inactive) | > 100 µM (inactive) | > 100 µM (inactive) | > 100 µM (inactive) | > 100 µM (inactive) | > 100 µM (inactive) | – | > 100 µM (inactive) | > 100 µM (inactive) |
| C=C(Cl)CN1c2ccccc2C=Cc2ccccc21 | > 100 µM (inactive) | 27.5 µM (inactive) | 14.7 µM (inactive) | > 100 µM (inactive) | 15.7 µM (inactive) | 16.9 µM (inactive) | – | 20.6 µM (inactive) | > 100 | 31.6 µM (inactive) | 29.7 µM (inactive) | 15.9 µM (inactive) | 27.5 µM (inactive) | 14.8 µM (inactive) | 15.6 µM (inactive) | 14.9 µM (inactive) | 10 µM (inactive) | – | – | – |
| CC(=O)OC1COC(n2nc(N)nc2C)C(OC(C)=O)C1OC(C)=O (stereo not given) | > 100 µM (inactive) | > 100 µM (inactive) | > 100 µM (inactive) | > 100 µM (inactive) | > 100 µM (inactive) | > 100 µM (inactive) | > 100 µM (inactive) | > 100 µM (inactive) | > 100 | > 100 µM (inactive) | > 100 µM (inactive) | > 100 µM (inactive) | > 100 µM (inactive) | > 100 µM (inactive) | > 100 µM (inactive) | > 100 µM (inactive) | > 100 µM (inactive) | > 100 µM (inactive) | > 100 µM (inactive) | – |
| CC1CC/C(=C\c2ccc(F)cc2)C(=O)/C1=C/c1ccc(F)cc1 (stereo not given) | 6.44 µM (inactive) | 17.9 µM (inactive) | 2.66 µM (inactive) | 2 µM (inactive) | 3.6 µM (inactive) | 5.46 µM (inactive) | 3.02 µM (inactive) | 3.22 µM (inactive) | 2.34 | 11.1 µM (inactive) | 4.07 µM (inactive) | 17.4 µM (inactive) | 7.03 µM (inactive) | 2.7 µM (inactive) | – | 4.69 µM (inactive) | 3.85 µM (inactive) | 3.08 µM (inactive) | 3.62 µM (inactive) | – |
| COc1cc2oc(-c3ccc(O)cc3O)c(CC=C(C)C)c(=O)c2c(O)c1/C=C/C(C)C [ARTOCARPIN] | 3.24 µM (inactive) | 6.4 µM (inactive) | 2.55 µM (inactive) | 2.64 µM (inactive) | 2.25 µM (inactive) | 7.1 µM (inactive) | 2.33 µM (inactive) | 1.81 µM (inactive) | 2.96 | 2.95 µM (inactive) | 4.26 µM (inactive) | 7.21 µM (inactive) | 3.58 µM (inactive) | 1.75 µM (inactive) | 2.75 µM (inactive) | 1.99 µM (inactive) | – | 2.75 µM (inactive) | 2.36 µM (inactive) | 2.02 µM (inactive) |
